Source: patent publication US20260232578A1, “COMPOSITIONS AND METHODS FOR TRANSMUCOSAL ABSORPTION” (Tonix Pharma Limited, priority 2012, published 2026)
“And” between values parts separate entries of the source, which are not always exact repeats. Identical values can stand only once. Like-named read-outs stand apart in the source and are kept apart here.

Columns and labels:
muscarinic M1 receptor = biological target: T1, muscarinic M1 receptor (Homo sapiens, UniProt P11229); test: G-protein-dependent signal transduction, intracellular Ca2+ mobilization; assay type: cell-based; parameters: expressed in transfected cells; settings: for IC50: M1, Ca2+ mobilization, read-out: IC50, functional antagonist
T1 sequence (P11229 1-460): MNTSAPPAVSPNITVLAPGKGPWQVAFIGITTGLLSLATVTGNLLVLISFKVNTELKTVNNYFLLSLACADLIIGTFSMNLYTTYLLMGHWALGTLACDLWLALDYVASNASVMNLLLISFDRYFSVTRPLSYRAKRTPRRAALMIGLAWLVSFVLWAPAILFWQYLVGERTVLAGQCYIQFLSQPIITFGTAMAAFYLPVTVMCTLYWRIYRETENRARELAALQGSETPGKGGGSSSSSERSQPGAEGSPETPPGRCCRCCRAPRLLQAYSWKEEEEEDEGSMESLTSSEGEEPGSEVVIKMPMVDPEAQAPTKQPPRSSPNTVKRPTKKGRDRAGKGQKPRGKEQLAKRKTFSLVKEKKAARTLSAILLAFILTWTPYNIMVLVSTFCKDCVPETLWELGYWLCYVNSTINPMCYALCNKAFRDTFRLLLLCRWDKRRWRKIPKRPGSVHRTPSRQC

D5 = D5 (Homo sapiens, UniProt P21918); test: Equilibrium receptor binding, recombinant human receptor
[1] = biological target: norepinephrine (NE) transporter (Homo sapiens, UniProt P23975); test: Equilibrium binding to transporters (FIG. 19); settings: Norepinephrine TP (transporter)
dopamine D1 receptor = biological target: T2, dopamine D1 receptor (Homo sapiens, UniProt P21728); test: G-protein-dependent signal transduction (Ca2+ mobilization, cAMP production or inositol triphosphate turnover); assay type: cell-based; settings: for IC50: read-out: IC50 (nM) (Antagonist)
T2 construct: expressed in transfected cells

5-HT1A receptor = biological target: T3, 5-HT1A receptor (Homo sapiens, UniProt P08908); test: G-protein-dependent signal transduction (functional agonism); assay type: cell-based
T3 construct: expressed in transfected cells
T3 sequence (P08908 1-422): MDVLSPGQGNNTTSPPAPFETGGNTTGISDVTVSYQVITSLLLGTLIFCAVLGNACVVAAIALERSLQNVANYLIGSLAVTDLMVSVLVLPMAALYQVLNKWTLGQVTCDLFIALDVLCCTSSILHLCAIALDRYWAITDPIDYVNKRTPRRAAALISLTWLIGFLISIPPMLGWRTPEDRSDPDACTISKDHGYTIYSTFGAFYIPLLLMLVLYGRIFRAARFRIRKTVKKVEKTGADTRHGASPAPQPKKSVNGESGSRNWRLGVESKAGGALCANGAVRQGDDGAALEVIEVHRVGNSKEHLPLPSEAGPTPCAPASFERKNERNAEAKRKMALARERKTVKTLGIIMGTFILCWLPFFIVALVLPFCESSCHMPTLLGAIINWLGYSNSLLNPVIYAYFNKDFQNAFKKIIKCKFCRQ
Description: Quantitation was based on peak area ratio of the analytes versus their stable labeled internal standards. A weighted (1/C2), linear regression was performed to determine the concentration of the analytes. All regressions and figures presented in this validation report were generated by MDS Sciex Analyst version 1.4.2 and Thermo Electron Corporation Watson LIMS software, version 7.0.0.01b. […] Select receptors were analyzed in ligand-induced intracellular calcium mobilization.

histamine H1 receptor [2] = biological target: T4, histamine H1 receptor (Homo sapiens, UniProt P35367); test: Equilibrium receptor binding, recombinant human receptor; settings: for Ki: H1
T4 construct: expressed in transfected cells

histamine H1 receptor [3] = biological target: T4, histamine H1 receptor; test: G-protein-independent signal transduction, β-arrestin signaling; assay type: cell-based; settings: for IC50: H1, β-arrestin signaling, read-out: IC50, functional antagonist
dopamine (D) transporter = dopamine (D) transporter (Homo sapiens, UniProt Q01959); test: biochemical
5-HT6 = 5-HT6 (Homo sapiens, UniProt P50406); test: Functional antagonism (Table 69)
5-HT2A = biological target: T5, 5-HT2A (Homo sapiens, UniProt P28223); test: G-protein-independent signal transduction, β-arrestin signaling; assay type: cell-based; settings: for IC50: β-arrestin signaling, read-out: IC50, functional antagonist
T5 construct: expressed in transfected cells

[4] = biological target: T6, adrenergic α1A receptor (Alpha1A) (Homo sapiens, UniProt P35348); test: Equilibrium receptor binding, recombinant human receptor; settings: for Ki: Alpha1A
T6 construct: expressed in transfected cells
T6 sequence (P35348 1-466): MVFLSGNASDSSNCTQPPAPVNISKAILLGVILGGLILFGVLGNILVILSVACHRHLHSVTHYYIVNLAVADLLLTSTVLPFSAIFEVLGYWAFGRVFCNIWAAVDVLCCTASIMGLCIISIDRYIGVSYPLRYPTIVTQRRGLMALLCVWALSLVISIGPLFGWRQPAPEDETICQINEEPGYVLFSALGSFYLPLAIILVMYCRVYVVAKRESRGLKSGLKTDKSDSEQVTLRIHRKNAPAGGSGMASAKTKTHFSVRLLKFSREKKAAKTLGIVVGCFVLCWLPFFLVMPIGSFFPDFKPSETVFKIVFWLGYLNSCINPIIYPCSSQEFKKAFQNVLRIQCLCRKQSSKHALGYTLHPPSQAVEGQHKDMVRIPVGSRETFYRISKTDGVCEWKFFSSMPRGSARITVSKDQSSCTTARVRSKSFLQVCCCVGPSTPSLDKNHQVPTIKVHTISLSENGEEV

5-HT2B = biological target: T7, 5-HT2B (Homo sapiens, UniProt P41595); test: G-protein-dependent signal transduction, turnover of inositol triphosphate (IP); assay type: cell-based; settings: read-out: IC50 (nM) (Antagonist)
T7 construct: expressed in transfected cells

5-HT transporter = 5-HT transporter (Homo sapiens, UniProt P31645); test: Equilibrium binding to transporters (FIG. 19); settings: Serotonin TP (transporter)
D3 = biological target: T8, D3 (Homo sapiens, UniProt P35462); test: Equilibrium receptor binding, recombinant human receptor
T8 construct: expressed in transfected cells

adrenergic α1A receptor = biological target: T9, adrenergic α1A receptor (Homo sapiens, UniProt P35348); test: G-protein-dependent signal transduction, intracellular Ca2+ mobilization; assay type: cell-based; settings: for IC50: α1A, Ca2+ mobilization, read-out: IC50, functional antagonist
T9 construct: expressed in transfected cells
T9 sequence (P35348 1-466): T6 sequence (P35348 1-466)

Sigma 2 = Sigma 2 (Homo sapiens, UniProt Q5BJF2); test: Equilibrium binding (Table 69)
histamine H1 receptor [5] = biological target: T4, histamine H1 receptor; test: G-protein-dependent signal transduction, intracellular Ca2+ mobilization; assay type: cell-based; settings: for IC50: H1, Ca2+ mobilization, read-out: IC50, functional antagonist
Sigma 1 = Sigma 1 (Homo sapiens, UniProt Q99720); test: Equilibrium binding (Table 69)
[6] = read-out: EC50, functional agonist
[7] = read-out: IC50 (nM) (Antagonist)

T5 sequence (P28223 whole entry): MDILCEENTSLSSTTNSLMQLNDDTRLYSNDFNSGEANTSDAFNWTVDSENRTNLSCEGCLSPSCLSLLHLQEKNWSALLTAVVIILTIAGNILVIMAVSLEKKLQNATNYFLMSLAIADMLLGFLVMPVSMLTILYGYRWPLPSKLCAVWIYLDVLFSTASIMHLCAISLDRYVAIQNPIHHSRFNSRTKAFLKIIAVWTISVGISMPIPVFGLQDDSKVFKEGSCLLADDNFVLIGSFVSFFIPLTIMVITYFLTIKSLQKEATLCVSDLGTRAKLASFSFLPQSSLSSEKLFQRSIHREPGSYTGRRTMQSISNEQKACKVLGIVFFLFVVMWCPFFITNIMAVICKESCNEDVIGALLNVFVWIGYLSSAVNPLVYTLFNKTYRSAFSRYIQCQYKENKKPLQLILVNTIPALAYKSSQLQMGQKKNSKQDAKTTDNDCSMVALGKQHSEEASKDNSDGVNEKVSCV
T4 sequence (P35367 whole entry): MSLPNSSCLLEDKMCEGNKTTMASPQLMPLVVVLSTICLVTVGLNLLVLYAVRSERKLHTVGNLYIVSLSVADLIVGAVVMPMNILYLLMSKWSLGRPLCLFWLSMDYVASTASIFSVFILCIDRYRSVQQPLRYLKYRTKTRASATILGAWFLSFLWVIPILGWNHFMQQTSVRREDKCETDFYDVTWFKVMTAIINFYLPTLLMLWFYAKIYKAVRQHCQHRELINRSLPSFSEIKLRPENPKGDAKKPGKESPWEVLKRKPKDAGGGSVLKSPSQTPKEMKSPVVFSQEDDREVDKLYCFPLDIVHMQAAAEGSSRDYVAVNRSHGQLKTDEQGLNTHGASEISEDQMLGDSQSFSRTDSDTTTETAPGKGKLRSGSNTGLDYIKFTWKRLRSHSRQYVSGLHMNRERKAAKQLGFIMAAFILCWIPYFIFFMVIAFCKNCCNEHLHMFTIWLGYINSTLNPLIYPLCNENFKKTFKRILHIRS
T2 sequence (P21728 whole entry): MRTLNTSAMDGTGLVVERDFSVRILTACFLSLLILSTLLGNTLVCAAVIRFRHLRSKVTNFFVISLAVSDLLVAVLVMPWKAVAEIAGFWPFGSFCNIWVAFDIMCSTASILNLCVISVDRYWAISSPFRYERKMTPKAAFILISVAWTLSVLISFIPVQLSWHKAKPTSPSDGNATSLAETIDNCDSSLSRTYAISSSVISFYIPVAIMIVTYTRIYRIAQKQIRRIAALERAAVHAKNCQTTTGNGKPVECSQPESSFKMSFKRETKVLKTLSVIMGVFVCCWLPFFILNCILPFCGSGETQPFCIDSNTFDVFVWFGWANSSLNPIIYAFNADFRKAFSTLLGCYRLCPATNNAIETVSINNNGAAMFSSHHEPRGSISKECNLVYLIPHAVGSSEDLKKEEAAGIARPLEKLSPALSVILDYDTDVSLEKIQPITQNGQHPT
Chain of Sigma 1 (Q99720 whole entry): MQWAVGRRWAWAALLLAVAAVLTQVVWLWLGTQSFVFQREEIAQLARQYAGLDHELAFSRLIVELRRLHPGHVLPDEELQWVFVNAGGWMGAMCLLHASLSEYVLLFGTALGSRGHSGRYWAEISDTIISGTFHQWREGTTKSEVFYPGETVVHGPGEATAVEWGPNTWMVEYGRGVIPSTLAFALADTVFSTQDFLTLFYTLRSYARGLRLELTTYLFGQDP
Chain of Sigma 2 (Q5BJF2 whole entry): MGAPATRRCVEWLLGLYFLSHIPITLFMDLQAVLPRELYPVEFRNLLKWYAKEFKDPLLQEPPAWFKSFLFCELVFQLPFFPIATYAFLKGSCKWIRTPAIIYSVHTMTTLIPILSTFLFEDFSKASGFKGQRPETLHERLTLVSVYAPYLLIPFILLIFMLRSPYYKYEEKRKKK
T8 sequence (P35462 whole entry): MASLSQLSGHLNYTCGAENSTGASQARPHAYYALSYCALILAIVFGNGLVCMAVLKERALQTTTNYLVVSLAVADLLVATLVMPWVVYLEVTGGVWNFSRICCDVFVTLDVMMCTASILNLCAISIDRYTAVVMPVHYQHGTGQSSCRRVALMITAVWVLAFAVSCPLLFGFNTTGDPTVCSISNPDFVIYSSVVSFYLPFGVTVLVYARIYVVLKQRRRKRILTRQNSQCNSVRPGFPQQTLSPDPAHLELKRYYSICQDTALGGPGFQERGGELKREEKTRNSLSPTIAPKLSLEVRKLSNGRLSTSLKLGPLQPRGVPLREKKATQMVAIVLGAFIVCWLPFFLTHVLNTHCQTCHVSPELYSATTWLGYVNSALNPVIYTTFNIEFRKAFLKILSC
Chain of 5-HT transporter (P31645 whole entry): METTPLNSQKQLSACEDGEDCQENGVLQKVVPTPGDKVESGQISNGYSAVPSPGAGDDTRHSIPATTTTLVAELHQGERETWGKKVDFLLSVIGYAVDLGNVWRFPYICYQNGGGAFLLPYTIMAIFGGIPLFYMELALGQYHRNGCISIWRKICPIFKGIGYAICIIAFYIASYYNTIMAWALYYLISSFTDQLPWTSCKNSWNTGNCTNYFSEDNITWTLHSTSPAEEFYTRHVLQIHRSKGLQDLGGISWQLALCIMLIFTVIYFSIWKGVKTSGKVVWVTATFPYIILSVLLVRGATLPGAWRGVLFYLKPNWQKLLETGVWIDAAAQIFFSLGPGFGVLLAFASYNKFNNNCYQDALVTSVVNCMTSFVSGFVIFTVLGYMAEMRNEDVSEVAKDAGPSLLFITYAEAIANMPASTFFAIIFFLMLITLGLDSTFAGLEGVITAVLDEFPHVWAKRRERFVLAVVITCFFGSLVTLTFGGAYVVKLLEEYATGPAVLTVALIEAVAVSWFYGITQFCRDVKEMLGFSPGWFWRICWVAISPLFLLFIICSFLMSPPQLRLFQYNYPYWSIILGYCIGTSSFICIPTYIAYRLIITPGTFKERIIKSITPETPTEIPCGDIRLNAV
Chain of 5-HT6 (P50406 whole entry): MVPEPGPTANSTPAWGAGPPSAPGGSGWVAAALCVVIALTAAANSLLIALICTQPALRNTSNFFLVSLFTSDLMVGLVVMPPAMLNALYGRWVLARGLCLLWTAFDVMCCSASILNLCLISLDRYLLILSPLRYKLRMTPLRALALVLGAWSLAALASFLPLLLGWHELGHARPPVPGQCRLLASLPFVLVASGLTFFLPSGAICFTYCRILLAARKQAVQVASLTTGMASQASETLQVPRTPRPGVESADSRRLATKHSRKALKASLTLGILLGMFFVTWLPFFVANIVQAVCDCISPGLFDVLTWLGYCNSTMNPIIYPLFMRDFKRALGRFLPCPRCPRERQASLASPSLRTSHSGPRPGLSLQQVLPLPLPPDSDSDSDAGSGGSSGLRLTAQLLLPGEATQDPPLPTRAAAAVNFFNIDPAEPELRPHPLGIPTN
Chain of dopamine (D) transporter (Q01959 whole entry): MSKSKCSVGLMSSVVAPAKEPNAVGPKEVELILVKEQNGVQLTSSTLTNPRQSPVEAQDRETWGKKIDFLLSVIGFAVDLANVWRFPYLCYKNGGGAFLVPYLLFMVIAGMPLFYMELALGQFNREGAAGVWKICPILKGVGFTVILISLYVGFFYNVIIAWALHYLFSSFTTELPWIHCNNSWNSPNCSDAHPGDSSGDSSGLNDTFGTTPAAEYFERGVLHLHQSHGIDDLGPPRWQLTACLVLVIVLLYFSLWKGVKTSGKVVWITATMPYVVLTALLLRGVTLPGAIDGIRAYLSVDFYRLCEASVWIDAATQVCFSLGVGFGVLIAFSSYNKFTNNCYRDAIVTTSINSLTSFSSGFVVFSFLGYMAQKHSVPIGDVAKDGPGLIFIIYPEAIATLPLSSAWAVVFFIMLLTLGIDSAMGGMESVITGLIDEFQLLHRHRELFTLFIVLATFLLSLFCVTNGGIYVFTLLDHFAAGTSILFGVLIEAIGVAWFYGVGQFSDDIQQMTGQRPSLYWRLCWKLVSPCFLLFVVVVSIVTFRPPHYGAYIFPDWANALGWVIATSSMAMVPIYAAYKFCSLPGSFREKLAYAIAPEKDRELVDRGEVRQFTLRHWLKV
Chain of D5 (P21918 whole entry): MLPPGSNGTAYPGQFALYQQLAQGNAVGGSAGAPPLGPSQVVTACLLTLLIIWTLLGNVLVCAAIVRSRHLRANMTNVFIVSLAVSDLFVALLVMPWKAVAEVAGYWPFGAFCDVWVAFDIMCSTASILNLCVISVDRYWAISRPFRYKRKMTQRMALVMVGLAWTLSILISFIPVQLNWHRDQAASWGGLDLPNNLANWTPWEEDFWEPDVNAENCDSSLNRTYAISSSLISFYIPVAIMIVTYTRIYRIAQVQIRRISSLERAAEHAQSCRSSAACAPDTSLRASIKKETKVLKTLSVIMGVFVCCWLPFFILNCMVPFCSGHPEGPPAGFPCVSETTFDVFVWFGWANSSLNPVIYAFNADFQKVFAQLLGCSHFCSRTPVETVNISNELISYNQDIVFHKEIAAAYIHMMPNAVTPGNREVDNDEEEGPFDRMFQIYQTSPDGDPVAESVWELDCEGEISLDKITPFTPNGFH
T7 sequence (P41595 whole entry): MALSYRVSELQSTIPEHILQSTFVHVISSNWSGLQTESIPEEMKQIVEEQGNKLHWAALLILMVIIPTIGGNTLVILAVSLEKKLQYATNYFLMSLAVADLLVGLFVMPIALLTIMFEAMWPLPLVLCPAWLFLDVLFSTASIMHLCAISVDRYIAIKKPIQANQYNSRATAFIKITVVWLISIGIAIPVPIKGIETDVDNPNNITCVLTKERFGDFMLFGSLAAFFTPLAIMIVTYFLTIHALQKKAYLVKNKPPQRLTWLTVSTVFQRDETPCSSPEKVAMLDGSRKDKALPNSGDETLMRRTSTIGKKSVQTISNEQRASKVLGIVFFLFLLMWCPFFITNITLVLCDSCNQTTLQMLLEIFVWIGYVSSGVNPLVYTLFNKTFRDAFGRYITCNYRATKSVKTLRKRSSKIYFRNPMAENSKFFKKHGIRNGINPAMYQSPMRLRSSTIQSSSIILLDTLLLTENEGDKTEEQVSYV

Compound | IC50 (muscarinic M1 receptor) [nM] | Ki (D5) [nM] | Ki [1] [nM] | IC50 (dopamine D1 receptor) [nM] | EC50 (5-HT1A receptor; [6]) [nM] | Ki (histamine H1 receptor [2]) | IC50 (histamine H1 receptor [3]) [nM] | Ki (dopamine (D) transporter) [nM] | IC50 (5-HT6) [nM] | IC50 (5-HT2A) [nM] | Ki [4] [nM] | IC50 (5-HT2B) [nM] | Ki (D3) [nM] | IC50 (adrenergic α1A receptor) [nM] | IC50 (histamine H1 receptor [5]) [nM] | further results
CN(C)CCC=C1c2ccccc2C=Cc2ccccc21 [cyclobenzaprine, 3-(5H-dibenzo[a,d]cyclohepten-5-ylidene)-N,N-dimethyl-1-propanamine] | 0.71 | 60 | 35 | 65 | 5300 | 1.3 nM | 2.7 | > 10000 | 2000 | 99 | 5.6 | 760 | 34 | 4.9 | 5.2 | EC50 (5-HT1A receptor; read-out: EC50 (nM) (Agonist)): 3200 nM; IC50 (5-HT transporter; [7]): 91 nM; IC50 (Sigma 2; [7]): 2000 nM; IC50 (Sigma 1; [7]): 790 nM
CNCCC=C1c2ccccc2C=Cc2ccccc21 [norcyclobenzaprine, 3-(5H-dibenzo[a,d]cyclohepten-5-ylidene)-N-methyl-1-propanamine] | 8.7 | 280 | 2.6 | 300 | 3200 | 5.6 nM and 5.9 nM | 6.1 | > 10000 | 2800 | 181 | 34 | 1400 | 98 | 16 | 16 | Four parameter Hill slope (or fit slope) ratio; Ca2+ signaling (muscarinic M1 receptor; M1): 0.62; Four parameter Hill slope (or fit slope) ratio; Ca2+ signaling (dopamine D1 receptor): 0.98; Four parameter Hill slope (or fit slope) ratio; Ca2+ signaling (5-HT1A receptor): −0.79; IC50 (5-HT1A receptor; [7]): 5300 nM; Hill plot ratio (Hill slope) (histamine H1 receptor [2]): 1.04; Four parameter Hill slope (or fit slope) ratio; β-arrestin signaling (histamine H1 receptor [3]; H1): 1.09; Four parameter Hill slope (or fit slope) ratio; β-arrestin signaling (5-HT2A): 1.11; Hill plot ratio (Hill slope) ([4]; equilibrium binding, α-1A): 1.16; Ki (5-HT transporter): 29 nM; Four parameter Hill slope (or fit slope) ratio; Ca2+ signaling (adrenergic α1A receptor; α-1A): 2.27; Ki (Sigma 2): 480 nM; Four parameter Hill slope (or fit slope) ratio; Ca2+ signaling (histamine H1 receptor [5]; H1): 0.79; Ki (Sigma 1): 120 nM
